Measured values taken from US11873298B2, “Compounds and uses thereof” (JANSSEN PHARMACEUTICA NV, priority 2017, dated 2024).

What was measured:
SCD1 = target: T1, SCD1 (Homo sapiens, UniProt O00767); assay: Growth inhibition of humanized yeast strain expressing SCD1 as sole desaturase; assay type: cell-based; conditions: humanized yeast strain, 40 h
T1 construct: host or cells: S. cerevisiae ole1Δ strain (W303 pdr1Δ pdr3Δ background), plasmid pRS316 with TDH3 promoter and CYC1 terminator
T1 sequence (O00767 1-359): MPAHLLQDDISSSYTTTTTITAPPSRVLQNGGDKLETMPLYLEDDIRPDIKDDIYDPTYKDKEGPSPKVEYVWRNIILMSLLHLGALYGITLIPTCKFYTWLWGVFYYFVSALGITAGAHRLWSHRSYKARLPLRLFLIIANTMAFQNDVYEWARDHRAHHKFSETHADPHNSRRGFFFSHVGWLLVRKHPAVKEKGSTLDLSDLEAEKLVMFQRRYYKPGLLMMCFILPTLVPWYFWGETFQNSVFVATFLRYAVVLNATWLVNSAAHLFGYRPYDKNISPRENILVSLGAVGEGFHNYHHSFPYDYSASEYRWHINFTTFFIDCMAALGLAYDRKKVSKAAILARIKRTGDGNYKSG
Outline: (§1)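 Yeast ole1Δ strain (W303 pdr1Δ pdr3Δ background) carrying plasmid-borne Ole1, SCD1 or SCD5 as sole desaturase was grown in uracil-lacking media, pre-cultured in raffinose for 6 h, then seeded in galactose medium with compound in DMSO. Growth was read as OD600 after 30° C. incubation: 24 h for Ole1, 40 h for SCD1/SCD5.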

SCD5 = target: T2, SCD5 (Homo sapiens, UniProt Q86SK9); assay: Growth inhibition of humanized yeast strain expressing SCD5 as sole desaturase; assay type: cell-based; conditions: humanized yeast strain, 40 h
T2 construct: host or cells: S. cerevisiae ole1Δ strain (W303 pdr1Δ pdr3Δ background), plasmid pRS316 with TDH3 promoter and CYC1 terminator
T2 sequence (Q86SK9 1-330): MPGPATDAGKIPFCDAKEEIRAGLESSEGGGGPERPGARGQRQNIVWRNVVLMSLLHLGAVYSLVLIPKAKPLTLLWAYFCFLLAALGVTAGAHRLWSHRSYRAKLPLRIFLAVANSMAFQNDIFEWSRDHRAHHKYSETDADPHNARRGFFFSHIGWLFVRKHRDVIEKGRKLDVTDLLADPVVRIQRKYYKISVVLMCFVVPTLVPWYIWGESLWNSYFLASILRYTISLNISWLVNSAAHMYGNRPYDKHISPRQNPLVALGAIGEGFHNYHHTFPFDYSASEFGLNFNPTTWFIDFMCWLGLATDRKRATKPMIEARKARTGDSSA
Outline: as §1

Compound | IC50 (SCD1) [µM] | IC50 (SCD5) [µM]
O=C(N1CCC(c2noc(-c3ccc4cnn(C5COC5)c4c3)n2)CC1)C1(F)CCC1 [Compound 1029] | > 45 | 0.01
CC(C)(C)OC(=O)N1CCC(c2ccc(-c3ccc4cnn(C5COC5)c4c3)nn2)CC1 [Compound 1030] | > 45 | 11
COC(=O)N1CCC(c2noc(-c3ccc4oc(=O)n(C5COC5)c4c3)n2)CC1 [Compound 1031] | > 45 | 1.13
COC(=O)N1CC2(CC(c3noc(-c4ccc5cnn(C6COC6)c5c4)n3)C2)C1 [Compound 1032] | > 45 | 4.1
CC(C)(C)C(=O)N1CC2(CC(c3noc(-c4ccc5cnn(C6COC6)c5c4)n3)C2)C1 [Compound 1033] | > 45 | 3.91
COC(=O)N1CCN(c2noc(-c3ccc4cnn(C5COC5)c4c3)n2)CC(F)(F)C1 [Compound 1034] | > 45 | 0.639
O=C(CC1CC1)N1CCN(c2noc(-c3ccc4cnn(C5COC5)c4c3)n2)CC(F)(F)C1 [Compound 1035] | > 45 | 0.265
COC(=O)N1CCC(c2noc(-c3ccc4ccn(C5COC5)c4c3)n2)CC1 [Compound 1036] | > 45 | 0.01
COC(=O)N1CCC(c2noc(-c3ccc4ccn(C(C)C)c4c3)n2)CC1 [Compound 1037] | 10.2 | 0.457
CCC(=O)N1CCN(c2noc(-c3ccc4cnn(C5COC5)c4c3)n2)CC(F)(F)C1 [Compound 1038] | > 45 | 2.3
CC(C)(C)OC(=O)N1CCC(c2noc(-c3ccc4ccn(C5COC5)c4c3)n2)CC1 [Compound 1039] | 15.7 | 0.01
CC(C)c1ncn2ccc(-c3nc(C4CCN(C(=O)OC(C)(C)C)CC4)no3)cc12 [Compound 1040] | > 45 | 0.791
CC(C)(C)OC(=O)N1CCC(c2noc(-c3cc(Br)c4cnn(C5COC5)c4c3)n2)CC1 [Compound 1041] | > 45 | 0.01
COC(=O)N1CCC(c2noc(-c3ccc4cnn(C5CCCC5)c4c3)n2)CC1 [Compound 1042] | > 45 | 0.079
COC(=O)N1CCC(c2noc(-c3cc(Br)c4cnn(C5COC5)c4c3)n2)CC1 [Compound 1043] | > 45 | 0.011
O=C(C1CCC1)N1CCC(c2nc(-c3ccc4cnn(C5COC5)c4c3)no2)CC1 [Compound 1044] | > 45 | 0.593
COC(=O)N1CCC(c2noc(-c3ccn4cnc(C(C)C)c4c3)n2)CC1 [Compound 1045] | ≥ 45 | 0.935
O=C(C1CCC1)N1CCN(c2noc(-c3ccc4cnn(C5COC5)c4c3)n2)CC(F)(F)C1 [Compound 1046] | ≥ 45 | 0.01
CC(C)(C)OC(=O)N1CCC(c2noc(-c3cnc4cnn(C5COC5)c4c3)n2)CC1 [Compound 1047] | ≥ 45 | 0.01
CC(C)n1ccc2ccc(-c3nc(C4CCN(C(=O)OC(C)(C)C)CC4)no3)cc21 [Compound 1048] | > 45 | 0.016
CCC(=O)N1CCC(c2noc(-c3ccc4cnn([C@H]5CCOC5)c4c3)n2)CC1 [Compound 1049] | > 45 | 0.012
CCC(=O)N1CCC(c2noc(-c3ccc4cnn([C@@H]5CCOC5)c4c3)n2)CC1 [Compound 1050] | > 45 | 0.02
CC(C)n1ncc2ccc(-c3noc(C4CCN(C(C)C(F)(F)F)CC4)n3)cc21 (stereo not shown) [Compound 1051] | > 45 | 7.5
COC(=O)N1CCC(c2noc(-c3cnc4cnn(C5COC5)c4c3)n2)CC1 [Compound 1052] | > 45 | 0.253
C[C@H]1C[C@H](c2noc(-c3ccc4cnn(C5COC5)c4c3)n2)CCN1C(=O)C1(F)CC1 [Compound 1053] | > 45 | 0.00118
COC(=O)N1CC[C@@H](c2noc(-c3ccc4cnn(C5COC5)c4c3)n2)C[C@@H]1C [Compound 1054] | > 45 | 0.01
